# According to article PMC5389348 (Scientific Reports, 2017):
# Read-outs that look alike come from different tables or passages of the source.
# How the values were obtained:
# [1] = system: mice; set-up: method as in PMID 21649644; conditions: 0.03 and 0.3 mg/kg; same experimental conditions; cited from earlier work
# [2] = target: T1, PDE5A1 (Homo sapiens, UniProt O76074); experiment: PDE enzymatic profile; assay type: biochemical; conditions: read-out: Comparator % inhibition
# T1 construct: purchased Scottish Biochem (Glasgow, Scotland, UK)
# [3] = target: T2, PDE1B (Homo sapiens, UniProt Q01064); experiment: PDE enzymatic profile; assay type: biochemical; conditions: Sildenafil 10 μM; read-out: Comparator % inhibition
# T2 construct: purchased Scottish Biochem (Glasgow, Scotland, UK)
# [4] = system: HTLA cells; set-up: method as in PMID 27560284; conditions: 100 μM; same experimental conditions; cited from earlier work
# [5] = set-up: method as in PMID 27560284; conditions: parent compound; cited from earlier work
# [6] = cited from earlier work
# T2 sequence (Q01064 whole entry): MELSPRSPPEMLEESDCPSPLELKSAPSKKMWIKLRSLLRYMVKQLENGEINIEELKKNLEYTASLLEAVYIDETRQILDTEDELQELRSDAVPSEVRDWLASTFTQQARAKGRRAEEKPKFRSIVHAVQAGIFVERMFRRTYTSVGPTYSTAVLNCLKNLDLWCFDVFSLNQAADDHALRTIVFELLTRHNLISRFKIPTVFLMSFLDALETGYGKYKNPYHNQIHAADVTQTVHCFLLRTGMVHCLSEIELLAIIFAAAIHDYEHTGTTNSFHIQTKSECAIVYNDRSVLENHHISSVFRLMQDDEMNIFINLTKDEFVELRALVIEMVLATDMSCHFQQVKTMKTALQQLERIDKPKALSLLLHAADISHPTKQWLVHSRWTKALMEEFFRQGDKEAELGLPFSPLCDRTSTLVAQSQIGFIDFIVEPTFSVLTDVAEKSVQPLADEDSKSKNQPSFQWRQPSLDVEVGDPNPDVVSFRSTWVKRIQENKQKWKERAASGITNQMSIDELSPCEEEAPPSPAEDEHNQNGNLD
smiles,measurement,setting,value
COc1ccc(C2CNC(=O)C2)cc1OC1CCCC1 (stereo not drawn) [Rolipram],duration of anaesthesia (emetic-like effect),[1],significantly shortened anaesthesia time
"CCCc1nn(C)c2c(=O)[nH]c(-c3cc(S(=O)(=O)N4CCN(C)CC4)ccc3OCC)nc12 [Sildenafil, reference compound]",inhibition at 0.1 µM,[2],74.9%
same,inhibition at 10 µM,[3],74.4%
COc1ccc(-c2ccn(CC(O)CN3CCOCC3)n2)cc1OC1CCCC1 (stereo not drawn) [compound 8a],increase of the forskolin-induced elevation of cAMP in cultured cells,[4],4 fold
same,brain/plasma ratio,[5],0.76
O=C(Nc1c(Cl)cncc1Cl)c1ccc(OC(F)F)c(OCC2CC2)c1 [roflumilast],brain/plasma ratio,[6],1
